Results reported in US20230150924A1, “NOVEL COMPOUND HAVING CANCER METASTASIS INHIBITORY ACTIVITY, PREPARATION METHOD THEREFOR, AND PHARMACEUTICAL COMPOSITION FOR INHIBITING CANCER METASTASIS AND INVASION OR TREATING COLORECTAL CANCER, COMPRISING COMPOUND” (CELLGENTEK CO., LTD., priority 2019, published 2023).
Read-outs that look alike come from different tables or passages of the source.

Assays:
KAI1 promoter = KAI1 promoter luciferase reporter assay in transfected Caco2 cells; type: cell-based, human; conditions: Homo sapiens, Caco-2, 16 h, read-out: Relative KAI promoter activity
Protocol: Experiments were conducted to evaluate the metastasis-related promoter activity-increasing effects of the compounds according to the present invention. Specifically, the KAI1 promoter reporter vector was used. In this case, the pRL-TK vector, a vector expressing renilla luciferase, was used as an internal control indicating the transfection efficiency in each transfected well.
First, 24 hours before transfection, 2×10^6 human colon cancer cell line, Caco2) cells were cultured in 10 ml of DMEM containing 10% FBS and 1% penicillin/streptomycin on a 100-mm-diameter plate, and then transformed with 5 μg of a pRL-TK vector mixture containing a transfection reagent and the KAI1 promoter, and then cultured in a 5% CO2 incubator at 37° C. for 48 hours. Thereafter, the adherent cells were detached using trypsin and counted using a hemacytometer, and then 5×10^3 transfected Caco2 cells in 100 μl of DMEM containing 10% FBS and 1% penicillin/streptomycin were seeded into each well of a 96-well plate and cultured in a 5% CO2 incubator at 37° C. for 24 hours. Next, 1 μM of each of the 305 compounds prepared in Examples 1 to 305 was added to each well, and after 16 hours, 100 μl of a lysis buffer for analysis containing a luciferase substrate was added, and the cells were lysed with stirring for 20 minutes. After completion of lysis, the cells were measured for luciferase activity using a luciferase reporter assay system (Promega, USA). […] In addition, data were analyzed at a significance level of p<0.05 by one-way ANOVA (Tukey's HSD), and SPSS 17.0 (Chicago, USA) statistical program was used. In Table 14 to 20, PHA is the PHA-665752, and KIT is KITENIN.

[1] = test system: invasion of colorectal cancer cells; assay: In vivo relative invation (invasion; EV and KITENIN controls, no method described); conditions: relative to EV (=1); KIT = KITENIN
[2] = 1 μM compound, 16 hours, transfected Caco2 cells, luciferase activity relative to DMSO control (=1)

| SMILES | fold induction at 1 µM (KAI1 promoter; [2]) | In vivo relative invation [1] | fold induction at 1 µM (KAI1 promoter) |
| --- | --- | --- | --- |
| O=C(CNC(=O)c1ccccc1CN1CCC(N2CCCCC2)CC1)c1ccccc1 [Example 301, 2-([1,4′-bipiperidin]-1′-ylmethyl)-N-(2-oxo-2-phenylethyl)benzamide] | 1.61 | 1.146 | – |
| O=C(COc1ccccc1C(=O)NCC(=O)c1ccccc1)NCc1ccc2c(c1)OCO2 [Example 212] | 1.01 | 1.219 | – |
| COc1ccc(C(=O)N2CCC(Oc3ccccc3C(=O)NCC(=O)c3ccccc3)CC2)cc1 [Example 173, 2-((1-(4-methoxybenzoyl)piperidin-4-yl)oxy)-N-(2-oxo-2-phenylethyl)benzamide] | 1.07 | 1.121 | – |
| O=C(CNC(=O)C1CCC1)c1ccc(Cl)cc1 [Example 57, N-(2-(4-chlorophenyl)-2-oxoethyl)cyclobutanecarboxamide] | 0.94 | 1.217 | – |
| O=C(COc1ccccc1C(=O)NCC(=O)c1ccccc1)Nc1ccc(Oc2ccccc2)cc1 [Example 221, 2-(2-oxo-2-((4-phenoxyphenyl)amino)ethoxy)-N-(2-oxo-2-phenylethyl)benzamide] | 0.961 | 1.322 | – |
| C/C=C/C(=O)NCC(=O)c1ccc(N2CCOCC2)cc1 [Example 139, (E)-N-(2-(4-morpholinophenyl)-2-oxoethyl)but-2-enamide] | 1.01 | 1.314 | – |
| C/C=C/C(=O)NCC(=O)c1cccc(OC)c1 [Example 123, (E)-N-(2-(3-methoxyphenyl)-2-oxoethyl)but-2-enamide] | 1.14 | 1.312 | – |
| CN(C)c1ccc(C(=O)CNC(=O)c2ccc(OC(F)(F)F)cc2)cc1 [Example 119, N-(2-(4-(dimethylamino)phenyl)-2-oxoethyl)-4-(trifluoromethoxy)benzamide] | 1.35 | 1.203 | – |
| CN(C)C(=O)N1CCC(Oc2ccccc2C(=O)NCC(=O)c2ccccc2)CC1 [Example 180, N,N-dimethyl-4-(2-((2-oxo-2-phenylethyl)carbamoyl)phenoxy) piperidine-1-carboxamide] | 1.09 | 1.253 | – |
| CCCCC(=O)NCC(=O)c1ccc(Cl)cc1 [Example 61, N-(2-(4-chlorophenyl)-2-oxoethyl)pentanamide] | 0.72 | 1 | – |
| O=C(CNC(=O)C1CC1)c1ccc(N2CCOCC2)cc1 [Example 143, N-(2-(4-morpholinophenyl)-2-oxoethyl)cyclopropanecarboxamide] | 1.16 | 0.8028 | – |
| CCCCCN(CCCCC)Cc1cccc(C(=O)NCC(=O)c2ccccc2)c1 [Example 250, 3-((dipentylamino)methyl)-N-(2-oxo-2-phenylethyl)benzamide] | 1.25 | 0.9781 | – |
| CCCN(CC)Cc1cccc(C(=O)NCC(=O)c2cccc(OC)c2)c1 [Example 294, 3-((ethyl(propyl)amino)methyl)-N-(2-(3-methoxyphenyl)-2-oxoethyl)benzamide] | 1.57 | 1.033 | – |
| O=C(CNC(=O)c1cccc(CN2CCN(c3ncccn3)CC2)c1)c1ccccc1 [Example 235, N-(2-oxo-2-phenylethyl)-3-((4-(pyrimidin-2-yl)piperazin-1-yl)methyl)benzamide] | 1.44 | 1.133 | – |
| COc1cccc(C(=O)CNC(=O)c2cccc(CN3CCN(c4ccccc4OC)CC3)c2)c1 [Example 282, N-(2-(3-methoxyphenyl)-2-oxoethyl)-3-((4-(2-methoxyphenyl)piperazin-1-yl)methyl)benzamide] | 1.47 | 1.214 | – |
| O=C(CNC(=O)c1ccccc1F)c1ccccc1 [Example 3, 2-fluoro-N-(2-oxo-2-phenylethyl)benzamide] | – | 1 | 2.12 |
| O=C(CNC(=O)c1ccccc1OC1CCN(S(=O)(=O)c2ccc(Cl)cc2)CC1)c1ccccc1 [Example 186, 2-((1-((4-chlorophenyl)sulfonyl)piperidin-4-yl)oxy)-N-(2-oxo-2-phenylethyl)benzamide] | 1.06 | 1.145 | – |
| COc1cccc(C(=O)CNC(=O)c2cccc(CN(C)C3CCCCC3)c2)c1 [Example 280, 3-((cyclohexyl(methyl)amino)methyl)-N-(2-(3-methoxyphenyl)-2-oxoethyl)benzamide] | 1.63 | 1.195 | – |
| O=C(CNC(=O)c1ccccc1OC1CCN(C(=O)C2CCCCC2)CC1)c1ccccc1 [Example 165, 2-((1-(cyclohexanecarbonyl)piperidin-4-yl)oxy)-N-(2-oxo-2-phenylethyl)benzamide] | 1.07 | 1.133 | – |
| CC(C)N(C)Cc1ccc(C(=O)NCC(=O)c2ccccc2)cc1 [Example 256, 4-((isopropyl(methyl)amino)methyl)-N-(2-oxo-2-phenylethyl)benzamide] | 2.25 | 1.267 | – |
| CCCCCN(CCCCC)Cc1cccc(C(=O)NCC(=O)c2cccc(OC)c2)c1 [Example 291, 3-((dipentylamino)methyl)-N-(2-(3-methoxyphenyl)-2-oxoethyl)benzamide] | 1.62 | 1.126 | – |
| CC(=O)N1CCC(Oc2ccccc2C(=O)NCC(=O)c2ccccc2)CC1 [Example 182, 2-((1-acetylpiperidin-4-yl)oxy)-N-(2-oxo-2-phenylethyl)benzamide] | 0.93 | 1.095 | – |
| O=C(CNC(=O)c1ccccc1OC1CCN(C(=O)c2cccs2)CC1)c1ccccc1 [Example 168, N-(2-oxo-2-phenylethyl)-2-((1-(thiophene-2-carbonyl)piperidin-4-yl)oxy)benzamide] | 1.05 | 1.199 | – |
| CN(Cc1ccccc1)Cc1ccc(C(=O)NCC(=O)c2ccccc2)cc1 [Example 266, 4-((benzyl(methyl)amino)methyl)-N-(2-oxo-2-phenylethyl)benzamide] | 2.21 | 1.401 | – |
| O=C(CNC(=O)c1cccc(CN2CCc3ccccc3C2)c1)c1ccccc1 [Example 232, 3-((3,4-dihydroisoquinolin-2 (1H)-yl)methyl)-N-(2-oxo-2-phenylethyl)benzamide] | 1.23 | 1.125 | – |
| O=C(CNC(=O)c1cccc([N+](=O)[O-])c1)c1ccc(Cl)cc1 [Example 77, N-(2-(4-chlorophenyl)-2-oxoethyl)-3-nitrobenzamide] | 0.92 | 1.274 | – |
| O=C(CNC(=O)c1cc(C(F)(F)F)cc(C(F)(F)F)c1)c1ccccc1 [Example 29, N-(2-oxo-2-phenylethyl)-3,5-bis(trifluoromethyl)benzamide] | 0.9 | 1.026 | – |
| O=C(CNS(=O)(=O)c1ccc(F)cc1)c1ccc(Cl)cc1 [Example 67, N-(2-(4-chlorophenyl)-2-oxoethyl)-4-fluorobenzenesulfonamide] | 0.87 | 1.175 | – |
